# Target: T1, h-GABAA α5β2γ1 (Homo sapiens, UniProt P31644+Q8N1C3)
# T1 construct: expressed in transfected cells; host or cells: HEK293F cells (ThermoFisher R79007), membranes
# T1 sequence (P31644 32-462): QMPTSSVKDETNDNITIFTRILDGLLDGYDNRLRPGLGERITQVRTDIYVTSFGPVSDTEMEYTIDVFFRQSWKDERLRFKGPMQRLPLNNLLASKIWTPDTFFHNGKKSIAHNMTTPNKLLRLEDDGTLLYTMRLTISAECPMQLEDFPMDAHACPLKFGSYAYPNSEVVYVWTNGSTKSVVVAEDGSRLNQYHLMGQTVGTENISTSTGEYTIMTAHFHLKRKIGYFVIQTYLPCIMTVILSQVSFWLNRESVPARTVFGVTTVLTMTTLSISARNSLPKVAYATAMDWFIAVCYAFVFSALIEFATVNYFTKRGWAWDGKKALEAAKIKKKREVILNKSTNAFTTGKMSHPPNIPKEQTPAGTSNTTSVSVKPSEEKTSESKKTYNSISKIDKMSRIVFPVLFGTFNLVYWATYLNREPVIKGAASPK
# T1 sequence (P47870 25-512 partner limits assumed): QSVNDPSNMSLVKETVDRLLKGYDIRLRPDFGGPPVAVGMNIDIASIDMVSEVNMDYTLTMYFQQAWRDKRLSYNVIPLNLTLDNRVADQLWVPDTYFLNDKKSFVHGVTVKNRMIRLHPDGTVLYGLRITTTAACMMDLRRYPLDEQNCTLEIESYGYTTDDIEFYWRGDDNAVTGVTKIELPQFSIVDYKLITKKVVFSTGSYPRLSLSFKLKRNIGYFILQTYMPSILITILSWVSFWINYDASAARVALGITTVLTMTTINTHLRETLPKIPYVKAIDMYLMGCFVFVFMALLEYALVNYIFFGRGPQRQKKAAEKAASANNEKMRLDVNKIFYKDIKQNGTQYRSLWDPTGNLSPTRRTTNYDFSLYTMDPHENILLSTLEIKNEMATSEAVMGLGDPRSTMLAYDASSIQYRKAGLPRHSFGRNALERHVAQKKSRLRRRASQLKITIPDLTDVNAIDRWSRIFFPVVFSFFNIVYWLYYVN
# T1 sequence (Q8N1C3 36-465): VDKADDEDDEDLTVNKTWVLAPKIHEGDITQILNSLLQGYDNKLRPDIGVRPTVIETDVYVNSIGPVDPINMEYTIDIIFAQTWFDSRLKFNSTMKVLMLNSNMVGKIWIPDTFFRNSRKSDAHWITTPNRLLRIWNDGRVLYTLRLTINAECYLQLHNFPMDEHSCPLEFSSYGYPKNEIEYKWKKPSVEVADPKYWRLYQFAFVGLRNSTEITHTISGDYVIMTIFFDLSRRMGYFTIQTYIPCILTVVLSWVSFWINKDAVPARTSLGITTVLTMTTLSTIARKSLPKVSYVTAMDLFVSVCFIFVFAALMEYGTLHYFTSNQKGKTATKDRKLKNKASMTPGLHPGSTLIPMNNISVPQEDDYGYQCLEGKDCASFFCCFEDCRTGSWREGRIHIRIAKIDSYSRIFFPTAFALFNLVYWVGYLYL
# Test: Radioligand binding assay, [3H]RO7239181 competition, HEK293F membranes
# Method in brief: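 Competition for [3H]RO7239181 (1.5 nM) binding to membranes from HEK293F cells transiently expressing human α5β2γ1 receptors. Compounds tested at 0.3–10000 nM; nonspecific binding defined with 10 μM RO7235136. Incubation 1 h at 4 °C in 10 mM KPi/100 mM KCl, pH 7.4; filtration, scintillation counting; Ki as mean of two determinations.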
row,Structure (SMILES),Ki [nM]
1,"Fc1cccnc1C1=NCc2nnc(-c3cccnn3)n2-c2ccc(Cl)c(Cl)c21 [Example 54, 7,8-dichloro-6-(3-fluoro-2-pyridyl)-1-pyridazin-3-yl-4H-[1,2,4]triazolo[4,3-a][1,4]benzodiazepine]",3.8
2,"Fc1cccnc1C1=NCc2nnc(-c3ccncn3)n2-c2ccc(Br)c(Cl)c21 [Example 46, 8-bromo-7-chloro-6-(3-fluoro-2-pyridyl)-1-pyrimidin-4-yl-4H-[1,2,4]triazolo[4,3-a][1,4]benzodiazepine]",3.9

# Reference: patent US20230141603A1, “BENZODIAZEPINE DERIVATIVES AS GABA A GAMMA1 PAM” (Hoffmann-La Roche Inc., priority 2021, published 2023)
